Laboratory results published in patent US20240293563A1, “GLP-1 RECEPTOR LIGAND MOIETY CONJUGATED OLIGONUCLEOTIDES AND USES THEREOF” (priority 2017, published 2024).
Square brackets hold non-standard residues; d marks the D form. Side chains are listed from the residue outwards. Ends that are not written are not given here. 5'‑hexylamino oligonucleotide ISIS 786434 = not defined here; Aib = CC(C)(N)C(=O)O; Mpa = O=C(O)CCS

Tests used:
[1] = Food intake of mice after single subcutaneous injection of GLP-1 conjugated ASO; format: in vivo, mouse
Procedure: Groups of eight mice were administered a single subcutaneous injection of 0.01, 0.03, or 0.1 μmol/kg of ION 816385 (GLP-1 conjugated MALAT-1 ASO conjugated via a disulfide linker) or 0.1 μmol/kg ION 1123118 (GLP-1 conjugated MALAT-1 ASO conjugated via a maleimide acid linker), as indicated in the table below, and food intake was measured for 24 hours. Food intake of eight mice administered a subcutaneous injection of PBS was monitored as a control.

MALAT1 = experiment: In situ hybridization of MALAT1 (QuantiGene ViewRNA) in mouse tissues after intravenous ASO; format: in vivo
Excerpt: NO: 63) or a GLP-1 conjugated MALAT1 ASO (ISIS 816385) described in Example 1 at concentrations of 1.8. 0.6, or 0.2 μmol/kg. […] MALAT1 expression was detected using the QuantiGene ViewRNA tissue assay (Affymetrix, cat. No. QVT0011). Species-specific MALAT1 probes were purchased from Affymetrix (cat. No. VB-11110-01/mouse; VF1-13963/monkey). In brief, mouse tissues were fixed in 10% neutral-buffered formalin and embedded into paraffin and sectioned into […]. After deparaffinization, the tissue slides were boiled in Affymetrix pretreatment solution for 10-30 minutes followed by treatment with protease at 40° C. for 10 to 40 minutes depending on tissue. The MALAT1 RNA probe was used at a 1:40 dilution and was incubated with sample at 40° C. for 120 minutes. After washing, the MALAT1 RNA/probe complex was hybridized with preamplifier, amplifier, and AP-oligonucleotides at 40° C. for 25, 15, and 15 minutes, respectively. After removal of free AP oligonucleotide by washing in PBS, the slide was incubated with Fast Red substrate at room temperature for 30 minutes. The tissue images were acquired using an Aperio scanner. Hung et al., 2013 Nuc Acid Ther. 369-78. To determine a dose response of a GLP-1 conjugated MALAT1 ASO (ISIS 816385) described in Example 1 on pancreatic MALAT1 expression, male C57BL/6 mice fed a chow diet received a single intravenous injection of ISIS 816385 or an unconjugated MALAT1 ASO (ISIS 556089) described above at concentrations of 0.2, 0.06, and 0.02 μmol/kg. MALAT1 expression was detected using the QuantiGene ViewRNA tissue assay described above.

## ISIS 816385 (H[Aib]EGTFTSDVSSYLEEQAAKEFIAWLVKGGPSSGAPPPSC([Mpa-5'‑hexylamino oligonucleotide ISIS 786434])-NH2; reading uncertain; also: Cys40 joined to the linker by a disulfide)
[1]; 0.01 μmol/kg single s.c., Time 1 h
  Cumulative Food Intake: 0.10 g
[1]; 0.01 μmol/kg single s.c., Time 2 h
  Cumulative Food Intake: 0.25 g
[1]; 0.01 μmol/kg single s.c., Time 3 h
  Cumulative Food Intake: 0.40 g
[1]; 0.01 μmol/kg single s.c., Time 4 h
  Cumulative Food Intake: 0.56 g
[1]; 0.01 μmol/kg single s.c., Time 5 h
  Cumulative Food Intake: 0.71 g
[1]; 0.01 μmol/kg single s.c., Time 6 h
  Cumulative Food Intake: 0.86 g
[1]; 0.01 μmol/kg single s.c., Time 7 h
  Cumulative Food Intake: 1.09 g
[1]; 0.01 μmol/kg single s.c., Time 8 h
  Cumulative Food Intake: 1.23 g
[1]; 0.01 μmol/kg single s.c., Time 9 h
  Cumulative Food Intake: 1.34 g
[1]; 0.01 μmol/kg single s.c., Time 10 h
  Cumulative Food Intake: 1.47 g
[1]; 0.01 μmol/kg single s.c., Time 11 h
  Cumulative Food Intake: 1.61 g
[1]; 0.01 μmol/kg single s.c., Time 12 h
  Cumulative Food Intake: 1.81 g
[1]; 0.01 μmol/kg single s.c., Time 13 h
  Cumulative Food Intake: 1.97 g
[1]; 0.01 μmol/kg single s.c., Time 14 h
  Cumulative Food Intake: 2.22 g
[1]; 0.01 μmol/kg single s.c., Time 15 h
  Cumulative Food Intake: 2.26 g
[1]; 0.01 μmol/kg single s.c., Time 16 h
  Cumulative Food Intake: 2.31 g
[1]; 0.01 μmol/kg single s.c., Time 17 h
  Cumulative Food Intake: 2.57 g
[1]; 0.01 μmol/kg single s.c., Time 18 h
  Cumulative Food Intake: 2.57 g
[1]; 0.01 μmol/kg single s.c., Time 19 h
  Cumulative Food Intake: 2.58 g
[1]; 0.01 μmol/kg single s.c., Time 20 h
  Cumulative Food Intake: 2.64 g
[1]; 0.01 μmol/kg single s.c., Time 21 h
  Cumulative Food Intake: 2.64 g
[1]; 0.01 μmol/kg single s.c., Time 22 h
  Cumulative Food Intake: 2.69 g
[1]; 0.01 μmol/kg single s.c., Time 23 h
  Cumulative Food Intake: 2.69 g
[1]; 0.01 μmol/kg single s.c., Time 24 h
  Cumulative Food Intake: 2.69 g
[1]; 0.03 μmol/kg single s.c., Time 1 h
  Cumulative Food Intake: 0.15 g
[1]; 0.03 μmol/kg single s.c., Time 2 h
  Cumulative Food Intake: 0.21 g
[1]; 0.03 μmol/kg single s.c., Time 3 h
  Cumulative Food Intake: 0.26 g
[1]; 0.03 μmol/kg single s.c., Time 4 h
  Cumulative Food Intake: 0.31 g
[1]; 0.03 μmol/kg single s.c., Time 5 h
  Cumulative Food Intake: 0.38 g
[1]; 0.03 μmol/kg single s.c., Time 6 h
  Cumulative Food Intake: 0.48 g
[1]; 0.03 μmol/kg single s.c., Time 7 h
  Cumulative Food Intake: 0.53 g
[1]; 0.03 μmol/kg single s.c., Time 8 h
  Cumulative Food Intake: 0.55 g
[1]; 0.03 μmol/kg single s.c., Time 9 h
  Cumulative Food Intake: 0.66 g
[1]; 0.03 μmol/kg single s.c., Time 10 h
  Cumulative Food Intake: 0.73 g
[1]; 0.03 μmol/kg single s.c., Time 11 h
  Cumulative Food Intake: 0.79 g
[1]; 0.03 μmol/kg single s.c., Time 12 h
  Cumulative Food Intake: 0.89 g
[1]; 0.03 μmol/kg single s.c., Time 13 h
  Cumulative Food Intake: 0.99 g
[1]; 0.03 μmol/kg single s.c., Time 14 h
  Cumulative Food Intake: 1.07 g
[1]; 0.03 μmol/kg single s.c., Time 15 h
  Cumulative Food Intake: 1.09 g
[1]; 0.03 μmol/kg single s.c., Time 16 h
  Cumulative Food Intake: 1.22 g
[1]; 0.03 μmol/kg single s.c., Time 17 h
  Cumulative Food Intake: 1.23 g
[1]; 0.03 μmol/kg single s.c., Time 18 h
  Cumulative Food Intake: 1.26 g
[1]; 0.03 μmol/kg single s.c., Time 19 h
  Cumulative Food Intake: 1.29 g
[1]; 0.03 μmol/kg single s.c., Time 20 h
  Cumulative Food Intake: 1.33 g
[1]; 0.03 μmol/kg single s.c., Time 21 h
  Cumulative Food Intake: 1.39 g
[1]; 0.03 μmol/kg single s.c., Time 22 h
  Cumulative Food Intake: 1.39 g
[1]; 0.03 μmol/kg single s.c., Time 23 h
  Cumulative Food Intake: 1.39 g
[1]; 0.03 μmol/kg single s.c., Time 24 h
  Cumulative Food Intake: 1.39 g
[1]; 0.1 μmol/kg single s.c., Time 1 h
  Cumulative Food Intake: 0.06 g
[1]; 0.1 μmol/kg single s.c., Time 2 h
  Cumulative Food Intake: 0.12 g
[1]; 0.1 μmol/kg single s.c., Time 3 h
  Cumulative Food Intake: 0.17 g
[1]; 0.1 μmol/kg single s.c., Time 4 h
  Cumulative Food Intake: 0.20 g
[1]; 0.1 μmol/kg single s.c., Time 5 h
  Cumulative Food Intake: 0.26 g
[1]; 0.1 μmol/kg single s.c., Time 6 h
  Cumulative Food Intake: 0.28 g
[1]; 0.1 μmol/kg single s.c., Time 7 h
  Cumulative Food Intake: 0.31 g
[1]; 0.1 μmol/kg single s.c., Time 8 h
  Cumulative Food Intake: 0.37 g
[1]; 0.1 μmol/kg single s.c., Time 9 h
  Cumulative Food Intake: 0.39 g
[1]; 0.1 μmol/kg single s.c., Time 10 h
  Cumulative Food Intake: 0.44 g
[1]; 0.1 μmol/kg single s.c., Time 11 h
  Cumulative Food Intake: 0.49 g
[1]; 0.1 μmol/kg single s.c., Time 12 h
  Cumulative Food Intake: 0.50 g
[1]; 0.1 μmol/kg single s.c., Time 13 h
  Cumulative Food Intake: 0.58 g
[1]; 0.1 μmol/kg single s.c., Time 14 h
  Cumulative Food Intake: 0.62 g
[1]; 0.1 μmol/kg single s.c., Time 15 h
  Cumulative Food Intake: 0.67 g
[1]; 0.1 μmol/kg single s.c., Time 16 h
  Cumulative Food Intake: 0.75 g
[1]; 0.1 μmol/kg single s.c., Time 17 h
  Cumulative Food Intake: 0.76 g
[1]; 0.1 μmol/kg single s.c., Time 18 h
  Cumulative Food Intake: 0.83 g
[1]; 0.1 μmol/kg single s.c., Time 19 h
  Cumulative Food Intake: 0.89 g
[1]; 0.1 μmol/kg single s.c., Time 20 h
  Cumulative Food Intake: 0.90 g
[1]; 0.1 μmol/kg single s.c., Time 21 h
  Cumulative Food Intake: 0.91 g
[1]; 0.1 μmol/kg single s.c., Time 22 h
  Cumulative Food Intake: 0.93 g
[1]; 0.1 μmol/kg single s.c., Time 23 h
  Cumulative Food Intake: 0.93 g
[1]; 0.1 μmol/kg single s.c., Time 24 h
  Cumulative Food Intake: 0.94 g
MALAT1; Study 2, single intravenous injection, any of the doses 0.2, 0.06, 0.02 μmol/kg
  effect in liver (MALAT1 in situ hybridization): No observable effect
MALAT1; Study 2, single intravenous injection, at the 0.2 μmol/kg dose and 0.06 μmol/kg dose
  MALAT1 staining in beta islet cells of the pancreas (in situ hybridization): reduced MALAT1 staining
MALAT1; male C57BL/6 mice, 2 intravenous injections of 1.8, 0.6 or 0.2 μmol/kg, 72 hours after final injection
  MALAT1 expression in pancreatic beta islet cells (in situ hybridization): reduced MALAT1 expression
